According to patent publication US11672802B2, “Induction of immune tolerance by using methotrexate” (Genzyme Corporation, priority 2011, dated 2023):
“Also recorded” adds a separate entry of the source.

Key:
anti-mATG antibody = assay: Anti-mATG titers in cardiac allograft transplant mice; format: in vivo; conditions: seven days following transplant, mice treated with methotrexate and mATG
Description: (§1) Polyclonal antibody mATG was administered as an intraperitoneal injection of 5 mg/kg every four weeks or as two 20 mg/kg doses given four days apart when in the transplant setting with the first dose given on the day of transplant (day 0).
(§2) The levels of anti-mATG IgG in mouse serum were analyzed by enzyme linked immunosorbent assay (ELISA). […] End-point titers were defined as the […] dilution that averages above an absorbance of 0.100 using Softmax software (Molecular Devices, Sunnyvale, Calif., USA).
C57BL/6 and BALB/c mice were obtained from Charles River (Kingston, N.Y. or Raleigh, N.C.) and used in these experiments between 8 and 13 weeks of age. The donor allogenic C57BL/6 mice were first anesthetized with an intraperitoneal injection of Ketamine (Fort Dodge Animal Health/Pfizer, Fort Dodge, Iowa) and Xylazine (Lloyd, Shenandoah, Iowa) and a median sternotomy was performed. […] The ascending aorta and pulmonary artery were then transected, the graft removed from the donor and the heart was stored in ice-cold saline until engraftment. A recipient mouse (Balb/c) was similarly anesthetized and prepped as described above for donor mice, except that the abdominal cavity was opened. […] Grafts were assessed by palpation 5-7 times per week for the first 30 day, and then 3-4 times per week until the end of the study.

anti-mATG IgG = assay: Anti-mATG (anti-rabbit) IgG ELISA titers in mice treated with mATG; format: in vivo, C57BL/6 mice; design: reduction of anti-mATG antibody responses, area under the effect curves / reduction of anti-mATG IgG titers, area under the effect curves / reduction of anti-mATG IgG titers: concentration or dose not given beside the values
Description: as §2

[1] = Circulating mATG levels (mATG-specific IgG ELISA); format: in vivo, mice
Description: Mouse serum was determined by ELISA. […] Following blocking with 0.5% BSA (high purity), standard controls and serum samples were diluted as necessary and added in duplicate to the wells of the coated plates and incubated at 36-38° C. for 1 hour with gentle shaking. […] Final concentrations were interpolated off the standard curve. It was predetermined that the measurement of mATG-specific IgG by this method were only modestly affected by titers of anti-mATG IgG that were greater than 218,000.

[2] = test system: anti-allograft antibodies; assay: Serum alloantibody levels (binding to allogeneic fibroblasts); format: in vivo, mice; conditions: day 21, allogeneic heart transplant
Description: Serum alloantibody levels were determined by incubating serum from cardiac transplanted or normal mice at 1:50 dilutions with an SV40 transformed C57BL/6 fibroblast line (SVB6) followed by detection of fibrobast bound antibodies (alloantibodies) using FITC rabbit anti-mouse IgG (Dako, Carpinteria, Calif.) and by flow cytometric analysis. Geometric mean fluorescent intensities of serum stained fibroblasts were divided by isotype control stained fibroblasts to normalize alloantibody levels between experiments.

anti-alemtuzumab IgG = assay: Anti-alemtuzumab IgG ELISA titers in huCD52 Tg mice
Description: Alemtuzumab-related studies employed human CD52 (huCD52) transgenic (Tg) mice between 6-12 weeks of age that were obtained from Charles River Laboratories/Genzyme Corp. Mice were housed and maintained in accordance with the Guide for Care and Use of Laboratory Animals and under American Association for Accreditation of Laboratory Animals Care I accreditation and all animal protocols used in these studies were approved by the Institutional Animals Care and Use Committee.
Monoclonal antibody alemtuzumab was administered intravenously as either a single injection of 0.5 mg/kg or in either a three or five day cycle of 0.5 mg/kg/day.
Methotrexate (Calbiochem catalog #454125) was administered at 0.5, 1.0, 2.0 or 5 mg/kg by intraperitoneal injection for 1-3 cycles, where each cycle equals either three, six or seven consecutive days of injection depending upon the experiment.
Mice were bled 4-6 days following alemtuzumab treatment and specific anti-alemtuzumab IgG was measured by ELISA. Briefly, 96-well plates (Corning Inc., Corning, N.Y., USA) were coated overnight with 3 μg/ml of alemtuzumab in PBS (pH 7.2). Following blocking with 0.1% BSA in PBS, serial dilutions of serum were added in duplicate to alemtuzumab-coated plates and incubated at 37° C. for 1 h. The plates were washed, and horseradish peroxidase-conjugated goat anti-mouse IgG secondary antibody (Southern Biotechnology Associates, Birmingham, Ala., USA) was added and allowed to incubate for 1 h at 37° C. Following a final wash, TMB substrate (BioFx, Owings Mills, Md., USA) was added and allowed to develop for 15 min at room temperature. The reaction was stopped by the addition of 1 N HCl and absorbance values were read at 450/650 nm on an ELISA plate reader (Molecular Devices, Sunnyvale, Calif., USA). End-point titers were defined as the antilog of the logarithmically transformed sample dilution interpolated at an absorbance value of 0.2 using Excel software (Microsoft, Redmond, Wash., USA).

[3] = test system: allogeneic heart transplant; assay: Murine allogeneic heart transplant model, graft survival; format: in vivo, mice (C57BL/6 donor, Balb/c recipient); conditions: treatment alone
Description: as §1
C57BL/6 and BALB/c mice were obtained from Charles River (Kingston, N.Y. or Raleigh, N.C.) and used in these experiments between 8 and 13 weeks of age. The donor allogenic C57BL/6 mice were first anesthetized with an intraperitoneal injection of Ketamine (Fort Dodge Animal Health/Pfizer, Fort Dodge, Iowa) and Xylazine (Lloyd, Shenandoah, Iowa) and a median sternotomy was performed. […] The ascending aorta and pulmonary artery were then transected, the graft removed from the donor and the heart was stored in ice-cold saline until engraftment. A recipient mouse (Balb/c) was similarly anesthetized and prepped as described above for donor mice, except that the abdominal cavity was opened. […] After hemostasis was confirmed, the abdominal muscle was closed with a running 5-O Vicryl suture (Ethicon, Johnson & Johnson, Somerville, N.J.), and the skin closed with running 5-0 Ethilon suture (Ethicon). Standard post-op pain assessment and management was performed. Grafts were assessed by palpation 5-7 times per week for the first 30 day, and then 3-4 times per week until the end of the study.

[4] = methotrexate 1 mg/kg/day, three alemtuzumab treatment cycles

CN(Cc1cnc2nc(N)nc(N)c2n1)c1ccc(C(=O)N[C@@H](CCC(=O)O)C(=O)O)cc1 [methotrexate, Methotrexate]
anti-rabbit IgG antibody titers (anti-mATG antibody): significantly lower
reduction of anti-mATG IgG titers (anti-mATG IgG; a single course of methotrexate): > 95%
anti-mATG (anti-rabbit IgG) titer lower than with mATG alone (anti-mATG IgG; mATG and a single cycle of methotrexate vs mATG alone): 100 fold
suppression of anti-mATG IgG responses, area under the effect curves (anti-mATG IgG; methotrexate 5 mg/kg ip six consecutive days, mATG 25 mg/kg x2, 3 days apart, through eight weeks): 95%
reduction of anti-mATG IgG titers, area under the effect curves (anti-mATG IgG; single course of methotrexate, mATG re-challenge after eight weeks rest): 99%
anti-mATG IgG titer (anti-mATG IgG; single cycle of methotrexate around first of five monthly mATG treatments): approximately 50,000
long-lived reduction in ADA (anti-mATG IgG; single cycle of methotrexate within first week of a protein therapy, over many months of dosing (summary statement)): greater than 95%
reduction of anti-mATG IgG titers, area under the effect curves (anti-mATG IgG; single cycle regimen, five monthly mATG (FIG. 4C)): 98%
reduction of anti-mATG IgG titers, area under the effect curves (anti-mATG IgG; three cycle regimen, five monthly mATG (FIG. 4C)): 69%
reduction of anti-mATG IgG titers, area under the effect curves (anti-mATG IgG; three cycle regimen, mATG re-challenge after eight weeks rest): 85%
anti-mATG antibody titers (anti-mATG IgG; three cycles of methotrexate 5 mg/kg with first three monthly mATG treatments): 816,000
reduction of anti-mATG antibody responses, area under the effect curves (anti-mATG IgG; three cycles of methotrexate, five monthly mATG (FIG. 4A)): 79%
circulating mATG levels ([1]; heart transplant model, seven days after first mATG administration, mATG alone or with methotrexate): significantly higher
levels of circulating mATG ([1]; months 3 and 5 of monthly mATG, alone or with single cycle methotrexate 5 mg/kg x3): measurable levels
anti-allograft antibody (alloantibody) levels [2]: significantly reduce; also recorded: significantly lower
reduction of anti-alemtuzumab responses (anti-alemtuzumab IgG; methotrexate 1 mg/kg, single three-dose cycle, five monthly alemtuzumab 0.5 mg/kg): 88%
mice in which titers were controlled (anti-alemtuzumab IgG; [4]): 7 of the 8
reduction of anti-alemtuzumab titers (anti-alemtuzumab IgG; [4]): 79%
reduction of ADA, area under the effect curves (anti-alemtuzumab IgG; methotrexate 2 mg/kg/day, three alemtuzumab treatment cycles): 98%
reduction of anti-alemtuzumab IgG responses (anti-alemtuzumab IgG; methotrexate 5 mg/kg, single three-dose cycle, five monthly alemtuzumab 0.5 mg/kg): 99%
anti-alemtuzumab antibody titers (anti-alemtuzumab IgG; three daily doses 5 mg/kg/day methotrexate, 24 hours after fifth monthly alemtuzumab dose): reduced
average extended graft survival [3]: 20 days
